pIC50: −log10 of the molar value. Like-named read-outs stand apart in the source and are kept apart here.
Key:
human recombinant FAAH = human recombinant FAAH (Homo sapiens (Human), UniProt O00519); assay: In vitro inhibition of human recombinant FAAH activity (Cayman FAAH inhibitor screening kit, AMC arachidonoyl amide hydrolysis); type: biochemical
From the text: In brief, FAAH hydrolyzes AMC arachidonoyl amide resulting in the release of the fluorescent product, while the inhibitor will inhibit the FAAH activity and thus reduce the fluorescent signal.

human recombinant MAGL = human recombinant MAGL (Homo sapiens (Human), UniProt Q99685); assay: In vitro inhibition of human recombinant MAGL activity (Cayman inhibitor screening kit, 4-nitrophenylacetate hydrolysis); type: biochemical
human recombinant MAGL, sequence (Q99685 whole entry): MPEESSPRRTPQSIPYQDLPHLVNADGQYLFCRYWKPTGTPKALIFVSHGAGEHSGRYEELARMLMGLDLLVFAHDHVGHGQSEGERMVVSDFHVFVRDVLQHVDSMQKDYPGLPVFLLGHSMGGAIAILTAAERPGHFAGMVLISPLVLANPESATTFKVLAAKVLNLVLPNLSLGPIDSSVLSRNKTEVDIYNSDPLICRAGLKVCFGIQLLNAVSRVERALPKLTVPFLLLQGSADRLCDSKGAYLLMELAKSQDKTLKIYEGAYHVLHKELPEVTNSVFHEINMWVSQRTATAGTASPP
From the text: The inhibitory effect of the synthetic chemicals on activity of human recombinant MAGL was studied using commercial inhibitor screening kit (Cayman Chemical). […] The absorbance of the yellow product can be analyzed using the plate reader. […]

[1] = human recombinant MAGL, read-out: Inhibition on MAGL activity (IC50)

human recombinant FAAH, sequence (O00519 whole entry): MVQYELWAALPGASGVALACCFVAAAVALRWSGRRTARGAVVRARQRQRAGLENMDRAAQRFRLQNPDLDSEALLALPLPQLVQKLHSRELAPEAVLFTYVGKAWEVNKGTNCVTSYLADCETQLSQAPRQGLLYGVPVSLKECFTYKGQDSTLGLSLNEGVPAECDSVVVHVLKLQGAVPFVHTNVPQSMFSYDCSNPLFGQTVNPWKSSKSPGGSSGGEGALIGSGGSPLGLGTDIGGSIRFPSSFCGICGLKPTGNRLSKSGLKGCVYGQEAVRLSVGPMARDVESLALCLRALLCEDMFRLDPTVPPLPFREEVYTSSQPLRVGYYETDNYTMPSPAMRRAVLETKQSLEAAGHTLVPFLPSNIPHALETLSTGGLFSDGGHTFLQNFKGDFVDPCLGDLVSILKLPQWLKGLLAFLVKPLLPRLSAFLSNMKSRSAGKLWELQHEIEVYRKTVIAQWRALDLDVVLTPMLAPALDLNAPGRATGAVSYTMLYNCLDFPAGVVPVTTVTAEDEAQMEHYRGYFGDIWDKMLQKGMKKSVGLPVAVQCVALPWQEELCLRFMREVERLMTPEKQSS

| Structure (SMILES) | pIC50 (human recombinant FAAH) | pIC50 (human recombinant MAGL; [1]) | pIC50 (human recombinant MAGL) |
| --- | --- | --- | --- |
| N#Cc1ncn(C(=O)N2CCN(C(c3ccc4occc4c3)c3ccc4occc4c3)CC2)n1 [Example 117, 1-(4-(di(benzofuran-5-yl)methyl)piperazine-1-carbonyl)-1H-1,2,4-triazole-3-carbonitrile] | 6.00 to 7.00 | 8.00 to 9.00 |  |
| COc1ccc(C(c2ccc3c(c2)COCO3)N2CCN(C(=O)n3cnc(C#N)n3)CC2)cn1 (stereo not drawn) [Example 118, 1-(4-((4H-benzo[d][1,3]dioxin-6-yl)(6-methoxypyridin-3-yl)methyl)piperazine-1-carbonyl)-1H-1,2,4-triazole-3-carbonitrile] | ~5.00 | 8.00 to 9.00 |  |
| N#Cc1ncn(C(=O)N2CCN(C(c3ccc(-n4cccn4)cc3)c3ccc4c(c3)COCO4)CC2)n1 (stereo not drawn) [Example 120, 1-(4-((4-(1H-pyrazol-1-yl)phenyl)(4H-benzo[d][1,3]dioxin-6-yl)methyl)piperazine-1-carbonyl)-1H-1,2,4-triazole-3-carbonitrile] | < 4.30 | 8.00 to 9.00 |  |
| N#Cc1ccc2c(c1)nnn2C(=O)N1CCN(C(c2ccc(F)cc2)c2ccc(F)cc2)CC1 [Example 121, 1-(4-(bis(4-fluorophenyl)methyl)piperazine-1-carbonyl)-1H-benzo[d][1,2,3]triazole-5-carbonitrile] | ~7.00 | 8.00 to 9.00 |  |
| Cn1ncc2cc(C(=C3CCN(C(=O)n4nnc5ccccc54)CC3)c3ccc4c(cnn4C)c3)ccc21 [Example 122, (1H-benzo[d][1,2,3]triazol-1-yl)(4-(bis(1-methyl-1H-indazol-5-yl)methylene)piperidin-1-yl)methanone] | ~4.30 | 7.00 to 8.00 |  |
| Cn1ncc2cc(C(=C3CCN(C(=O)n4cnc(C#N)n4)CC3)c3ccc4c(cnn4C)c3)ccc21 [Example 123, 1-(4-(bis(1-methyl-1H-indazol-5-yl)methylene)piperidine-1-carbonyl)-1H-1,2,4-triazole-3-carbonitrile] | ~5.00 | 8.00 to 9.00 |  |
| N#Cc1ncn(C(=O)N2CCC(=C(c3ccc4c(c3)COCO4)c3ccc4c(c3)COCO4)CC2)n1 [Example 124, 1-(4-(bis(4H-benzo[d][1,3]dioxin-6-yl)methylene)piperidine-1-carbonyl)-1H-1,2,4-triazole-3-carbonitrile] | 5.00 to 6.00 | 8.00 to 9.00 |  |
| N#Cc1ncn(C(=O)N2CC3CC(=C(c4ccc5c(c4)COCO5)c4ccc5c(c4)COCO5)CC3C2)n1 (stereo not drawn) [Example 125, meso-1-(5-(bis(4H-benzo[d][1,3]dioxin-6-yl)methylene)octahydrocyclopenta[c]pyrrole-2-carbonyl)-1H-1,2,4-triazole-3-carbonitrile] | 5.00 to 6.00 | 8.00 to 9.00 |  |
| N#Cc1ncn(C(=O)N2CC3(CC(=C(c4ccc5c(c4)COCO5)c4ccc5c(c4)COCO5)C3)C2)n1 [Example 126, 1-(6-(bis(4H-benzo[d][1,3]dioxin-6-yl)methylene)-2-azaspiro[3.3]heptane-2-carbonyl)-1H-1,2,4-triazole-3-carbonitrile] | 5.00 to 6.00 | 8.00 to 9.00 |  |
| N#Cc1ncn(C(=O)N2C3CCC2CC(=C(c2ccc4c(c2)COCO4)c2ccc4c(c2)COCO4)C3)n1 [Example 127, 1-(3-(bis(4H-benzo[d][1,3]dioxin-6-yl)methylene)-8-azabicyclo[3.2.1]octane-8-carbonyl)-1H-1,2,4-triazole-3-carbonitrile] | < 4.30 |  | 8.00 to 9.00 |
| N#Cc1ncn(C(=O)N2CCCC(=C(c3ccc4c(c3)COCO4)c3ccc4c(c3)COCO4)CC2)n1 [Example 128, 1-(4-(bis(4H-benzo[d][1,3]dioxin-6-yl)methylene)azepane-1-carbonyl)-1H-1,2,4-triazole-3-carbonitrile] | 5.00 to 6.00 | 8.00 to 9.00 |  |
| N#Cc1ncn(C(=O)N2CCC(C(c3ccc4c(c3)COCO4)c3ccc4c(c3)COCO4)CC2)n1 [Example 129, 1-(4-(bis(4H-benzo[d][1,3]dioxin-6-yl)methyl)piperidine-1-carbonyl)-1H-1,2,4-triazole-3-carbonitrile] | 5.00 to 6.00 | 8.00 to 9.00 |  |
| N#Cc1ncn(C(=O)N2C3CCC2CC(C(c2ccc4c(c2)COCO4)c2ccc4c(c2)COCO4)C3)n1 (stereo not drawn) [Example 130, 1-(3-(bis(4H-benzo[d][1,3]dioxin-6-yl)methyl)-8-azabicyclo[3.2.1]octane-8-carbonyl)-1H-1,2,4-triazole-3-carbonitrile] | < 4.30 |  | 8.00 to 9.00 |
| O=C(Nc1cnccc1Cl)N1CCN(Cc2ccc3c(c2)OC(F)(F)O3)CC1 [JNJ-42165279, reference compound] | 6.98 | < 4.30 |  |
| O=C(Nc1cccnn1)N1CCC(=Cc2cccc(Oc3ccc(C(F)(F)F)cn3)c2)CC1 [PF-04457845, reference compound] | 8.72 | < 5.00 |  |
